Format in all cases: cell-based, porcine
For experiment [1], the system named is Choroid plexus (CP) cell clusters. Description: Total antioxidant capacity (TAC) of culture supernatants of CP cell clusters exposed to candidate CP inducing agents (OxiSelect TAC assay). The settings on record: non-encapsulated CP clusters, 72 hours; FIG. 2. As for the experimental part:
Choroid plexus (CP) cell clusters comprising CP cells (5×10^3 clusters/mL) were prepared as described above in Example 1 but without encapsulation and cultured at 37° C. in a 5% CO2 incubator for 24 or 72 hours in vitro in 24-well ultra-low (cell) attachment plates, and culture supernatants were tested for total antioxidant capacity (TAC) using the OxiSelect™ TAC assay (Cat. No. STA-360, Cell Biolabs, Inc., San Diego, Calif.) according to the manufacturer's instructions. To avoid interference in the TAC assay from medium components, cultures were incubated in serum-free, phenol-free RPMI media supplemented with 10 mM nicotinamide. A panel of candidate CP inducing agents was also tested for effects on TAC elaboration by CP cells. Control wells that received the culture medium alone or with each candidate CP inducing agent, but no CP cell clusters, were also incubated and tested for TAC.

Experiment [2] deals with encapsulated CP. As to the kind of experiment: VEGF secretion by encapsulated CP cultured with or without inducers. The settings on record: 1000 CP-containing capsules, 24 hours at 37° C.; FIG. 3B. The method, then:
To determine that certain inducers can increase the secretion of CSF components by CPs that have been encapsulated, 1000 CP-containing capsules were cultured in 24-well multi-well plate with or without various inducers including LiCl at 37° C. for 24 hours. Aliquots of supernatant fluids were collected and assayed for VEGF as described in EXAMPLE 1. Aliquots of the cell cultures were also collected for DNA quantification to determine the relative number of cells in each well as described in EXAMPLE 1.

The subject of experiment [3] is CP clusters containing CP cells. As to the kind of experiment: RNA-Seq of CP clusters for genes encoding CSF components after exposure to inducing agent. The settings on record: 12 mM LiCl, 72 hours, vs controls; FIG. 8. As for the experimental part:
In a further experiment to identify genes for which the expression levels were altered in CP cells following contact with an inducing agent as provided herein, CP clusters (5×10^3 clusters/mL) containing CP cells, obtained from 12-13 day-old piglets and cultured in vitro for 20-22 days, were incubated for 72 hours in serum-free, phenol-free RPMI medium containing 10 mM nicotinamide in the absence (controls) or presence (inducing agent-treated) of 12 mM LiCl. Cell pellets were harvested and 0.25 ml of TRI™ Reagent (Catalog # T9424, Sigma-Aldrich Corporation, St. Louis, Mo.) was added to lyse the cells. The lysate was pipetted up and down approximately 10 times and stored at −80° C. until RNA-Seq analysis. […] Corresponding human genes encoding human CSF components were identified by established orthology analysis (Groenen et al., 2012 Nature 491(7424):393-8).

Counter-ions that a name gives are not always drawn.

Take `[Cl-].[Li+]` [LiCl, lithium chloride]: the “release of total antioxidant capacity (TAC) by CP cells” value in experiment [1] is reported as “promoted the release by CP cells of elevated TAC levels”. Also, the “VEGF secretion by encapsulated CP versus culture without inducers” value in experiment [2] was “induced VEGF secretion by encapsulated CP above the level secreted by encapsulated CPs cultured without inducers”. Besides, the “expression levels of porcine genes encoding known CSF components” value in experiment [3] is listed as “expression levels increased (FIG. 8A-E) or decreased (FIG. 8F-K)”.
Consider `NCCS(=O)(=O)O` [taurine, 2-aminoethanesulfonic acid], for which, in experiment [2], the “VEGF secretion by encapsulated CP versus culture without inducers” value is “induced VEGF secretion by encapsulated CPs”.
With `COC1=C(OC)C(=O)C(CCCCCCCCCC[P+](c2ccccc2)(c2ccccc2)c2ccccc2)=C(C)C1=O` [MitoQ, 10-(6′-ubiquinoyl) decyltriphenylphosphonium salt], the “VEGF secretion by encapsulated CP versus culture without inducers” value in experiment [2] is recorded as “induced VEGF secretion by encapsulated CPs”.
Regarding `O=C([O-])[O-].[Li+].[Li+]` [lithium carbonate], the “VEGF secretion by encapsulated CP versus culture without inducers” value in experiment [2] is on record as “induced VEGF secretion by encapsulated CP above the level secreted by encapsulated CPs cultured without inducers”.

Source of the values: patent US20160361365A1, “TREATMENT OF CNS DISEASE WITH ENCAPSULATED INDUCIBLE CHOROID PLEXUS CELLS” (Living Cell Technologies New Zealand Limited, priority 2015, published 2016).
